For 15 compounds, Dmax and DC50 results are on record in patent US20260258039A1, “AROMATIC COMPOUND, METHOD FOR PREPARING SAME, AND USE THEREOF IN PREPARATION OF ESTROGEN RECEPTOR DEGRADER” (Hinova Pharmaceuticals Inc., priority 2022, published 2026).

The structures appear in SMILES notation. Where two headings read alike, the source gives them in different places. A value given as a limit tells only on which side of the number the result lay.

The assay has as its target T1, ER (Homo sapiens, UniProt P03372).
T1 construct: T47D breast cancer cells were subcultured in cell culture medium; endogenous in cells; host or cells: T47D breast cancer cells
T1 sequence (P03372 1-595): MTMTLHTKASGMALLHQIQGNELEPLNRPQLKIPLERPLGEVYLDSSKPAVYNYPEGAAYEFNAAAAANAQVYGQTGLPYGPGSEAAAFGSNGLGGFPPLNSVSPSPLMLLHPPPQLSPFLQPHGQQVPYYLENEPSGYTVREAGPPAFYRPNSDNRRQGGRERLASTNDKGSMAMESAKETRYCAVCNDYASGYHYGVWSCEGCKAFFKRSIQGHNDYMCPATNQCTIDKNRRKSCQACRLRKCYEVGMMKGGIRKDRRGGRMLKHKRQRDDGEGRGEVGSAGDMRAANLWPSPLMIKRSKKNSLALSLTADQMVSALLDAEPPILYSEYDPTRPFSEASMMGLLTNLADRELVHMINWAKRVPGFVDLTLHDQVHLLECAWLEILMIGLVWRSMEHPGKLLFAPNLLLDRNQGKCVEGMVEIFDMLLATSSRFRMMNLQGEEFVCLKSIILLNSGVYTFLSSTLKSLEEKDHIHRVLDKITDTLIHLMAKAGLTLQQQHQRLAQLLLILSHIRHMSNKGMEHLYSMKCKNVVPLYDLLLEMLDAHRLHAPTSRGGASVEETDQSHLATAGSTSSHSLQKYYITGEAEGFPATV
The assay is described as follows: Degradation activities on ER (ELISA) in T47D breast cancer cells. The assay is classed as cell-based. As to conditions: T47D cells, 24 h, ELISA; for Dmax: maximum percentage of target protein degraded; for DC50: concentration required to degrade 50% of the target protein. How it is done:
T47D breast cancer cells were subcultured in cell culture medium, and then the cells in good growth condition were seeded into 96-well plates at 80 µL/well, with 2.5×10^4 cells per well. The cells were incubated in a 37° C., 5% CO2 incubator for 3 days. The drug was prepared into a 10 mM stock solution with dimethyl sulfoxide (DMSO). Prior to use, the stock solution was diluted with cell culture medium to obtain six final concentrations (100 nM, 25 nM, 6.25 nM, 1.56 nM, 0.39 nM, and […]), and gently mixed. Additionally, negative control wells (only containing culture medium) and positive control wells (only containing cells and DMSO) were included. After the cells were incubated in the incubator for 24 h, the cells were rinsed once with ice-cold 1×PBS. […] The plate was sealed with plastic film, and incubated in a 37° C. incubator for 2 h. The film was removed. 200 μL of 1× washing buffer was added to each well, and then the plate was shaken for 5 min. The washing buffer was discarded, and the plate was pat-dried. The plate was washed four times. 100 μL of freshly prepared detection antibody (green) was added to each well of the ELISA plate. The plate was sealed with plastic film, and then incubated in a 37° C. incubator for 1 h. The film was removed, and the detection antibody was discarded. The plate was pat-dried. 200 μL of 1× washing buffer was added to each well, and then the plate was shaken for 5 min. The washing buffer was discarded, and the plate was pat-dried. The plate was washed four times. 100 μL of freshly prepared HRP-labeled secondary antibody (red) was added to each well of the ELISA plate. The plate was sealed with plastic film, and incubated in a 37° C. incubator for 30 min. The film was removed, the secondary antibody was discarded, and the plate was pat-dried, followed by adding 200 μL of 1× washing buffer to each well. The plate was shaken for 5 min, and the washing buffer was discarded before pat-drying the plate. The plate was washed four times. 100 μl of TMB substrate was added to each well of the ELISA plate, followed by incubating in a 37° C. incubator for 5 min. 100 μL of STOP solution was added to each well of the ELISA plate, and the plate was gently shaken for a few seconds. The bottom of each well was wiped with lint-free cloth. Within 30 min after adding the STOP solution, the absorbance was read at 450 nm. […] The data were analyzed using the Dose-response equation in GraphPad Prism8 software to obtain the DC50 and Dmax values, and both of them are important indicators for measuring the degradation activities of compounds on target proteins. […] The Dmax value represents the maximum percentage of target protein that can be degraded by the compound.
(In an ELISA, binding on a coated surface is turned into a signal by an enzyme label.)

One may read the Dmax as the greatest extent of degradation seen. In the case of `O=C1CCC(N2Cc3cc(N4CC5(CCN(CC6CCN(c7ccc([C@H]8c9ccc(O)cc9OC[C@H]8c8c(F)cccc8F)cc7)CC6)CC5)C4)ccc3C2=O)C(=O)N1` (stereo partly drawn) [Example 72, 3-(5-(7-((1-(4-((3R,4S)-3-(2,6-difluorophenyl)-7-hydroxychroman-4-yl)phenyl)piperidin-4-yl)methyl)-2,7-diazaspiro[3.5]nonane-2-yl)-1-oxoisoindol-2-yl)piperidin-2,6-dione], the Dmax (read-out: Dmax) was < 50%.
As a reminder, the DC50 is the concentration at which degradation of the target reaches its halfway point. A high value points to degradation only at high concentration. As for `O=C1CCC(N2Cc3cc(N4CCC(N5CC6(CCN(c7ccc([C@H]8c9ccc(O)cc9OC[C@H]8c8ccccc8F)cc7)CC6)C5)CC4)ccc3C2=O)C(=O)N1` (stereo partly drawn) [Example 15], the half-maximal degradation concentration (DC50) was > 100 nM. Further, the maximal degradation (Dmax) (read-out: Dmax) is < 50%.
On the same counts, the results for `O=C1CC[C@@H](N2Cc3cc(N4CC5(CCN(CC6CCN(c7ccc([C@@H]8c9ccc(O)cc9OC[C@@H]8c8ccccc8F)cc7)CC6)CC5)C4)ccc3C2=O)C(=O)N1` [Example 90, (R)-3-(5-(7-((1-(4-((3S, 4R)-3-(2-fluorophenyl)-7-hydroxychroman-4-yl)phenyl)piperidin-4-yl)methyl)-2,7-diazaspiro[3.5]nonane-2-yl)-1-oxoisoinodolin-2-yl)piperidin-2,6-dione] are > 100 nM and < 50%.
On the same counts, the results for `O=C1CCC(N2Cc3cc(N4CC5(CCN(CC6CCN(c7ccc([C@H]8c9ccc(O)cc9OC[C@H]8c8c(F)cccc8F)cc7F)CC6)CC5)C4)ccc3C2=O)C(=O)N1` (stereo partly drawn) [Example 71, 3-(5-(7-((1-(4-((3R,4S)-3-(2,6-difluorophenyl)-7-hydroxychroman-4-yl)-2-fluorophenyl)piperidin-4-yl)methyl)-2,7-diazaspiro[3.5]nonane-2-yl)-1-oxoisoinodolin-2-yl)piperidin-2,6-dione] are > 100 nM and < 50%.
The matching figures for `O=C1CCC(N2Cc3cc(N4CC5(CCN(CC6CCN(c7ccc([C@@H]8c9ccc(O)cc9OC[C@@H]8c8cc(F)ccc8F)cc7)CC6)CC5)C4)ccc3C2=O)C(=O)N1` (stereo partly drawn) [Example 47, 3-(5-(7-((1-(4-(cis-3-(2,5-difluorophenyl)-7-hydroxychroman-4-yl)phenyl)piperidin-4-yl)methyl)-2,7-diazaspiro[3.5]nonane-2-yl)-1-oxoisoinodolin-2-yl)piperidin-2,6-dione]: 10 to 50 nM and 50 to 75%.
The compound `Cc1ccccc1[C@H]1COc2cc(O)ccc2[C@H]1c1ccc(N2CCC(CN3CCC4(CC3)CN(c3ccc5c(c3)CN(C3CCC(=O)NC3=O)C5=O)C4)CC2)cc1` (stereo partly drawn) [Example 35, 3-(5-(7-((1-(4-(cis-7-hydroxyl-3-(o-methylphenyl)chroman-4-yl)phenyl)piperidin-4-yl)methyl)-2,7-diazaspiro[3.5]nonane-2-yl)-1-oxoisoinodolin-2-yl)piperidin-2,6-dione] showed a 50% degradation concentration (DC50) of 10 to 50 nM. Further, under “read-out: Dmax”, the Dmax lay within 50 to 75%.
The matching figures for `O=C1CCC(N2Cc3cc(N4CCC5(CCN(C6CCN(c7ccc([C@@H]8c9ccc(O)cc9CC[C@@H]8c8ccccc8)cc7)CC6)C5)C4)ccc3C2=O)C(=O)N1` (stereo partly drawn) [Example 66, 3-(5-(7-(1-(4-(6-hydroxyl-2-phenyl-1,2,3,4-tetrahydronaphthalen-1-yl)phenyl)piperidin-4-yl)-2,7-diazaspiro[4.4]nonane-2-yl)-1-oxoisoinodolin-2-yl)piperidin-2,6-dione]: > 100 nM and < 50%.
For `O=C1CCC(N2Cc3cc(N4CCC(N5CC6(CCN(c7ccc([C@@H]8c9ccc(O)cc9OC[C@@H]8c8ccccc8)cc7)CC6)C5)CC4)ccc3C2=O)C(=O)N1` (stereo partly drawn) [Example 13], the DC50 is < 10 nM. Besides, the Dmax (read-out: Dmax) was > 75%.
On the same counts, the results for `O=C1CCC(N2Cc3cc(N4CCC(N5CC6(CCN(c7ccc([C@@H]8c9ccc(O)cc9CC[C@@H]8c8ccccc8)cc7F)CC6)C5)CC4)ccc3C2=O)C(=O)N1` (stereo partly drawn) [Example 69, 3-(5-(4-(7-(2-fluoro-4-((1,2-cis)-6-hydroxyl-2-phenyl-1,2,3,4-tetrahydronaphthalen-1-yl)phenyl)-2,7-diazaspiro[3.5]nonane-2-yl)piperidin-1-yl)-1-oxoisoinodolin-2-yl)pyridine-2,6-dione] are < 10 nM and > 75%.
`O=C1CCC(N2Cc3cc(N4CCC(N5CC6(CCN(c7ccc([C@@H]8c9ccc(O)cc9OC[C@@H]8c8ccccc8F)cc7)CC6)C5)CC4)ccc3C2=O)C(=O)N1` (stereo partly drawn) [Example 20, 3-(5-(4-(7-(4-(cis-3-(2-fluorophenyl)-7-hydroxychroman-4-yl)phenyl)-2,7-diazaspiro[3.5]nonane-2-yl)piperidin-1-yl)-1-oxoisoinodolin-2-yl)piperidin-2,6-dione]: the 50% degradation concentration (DC50) is < 10 nM.
For the compound `O=C1CCC(N2Cc3cc(N4CC5(CCN(CC6CCN(c7c(F)cc([C@H]8c9ccc(O)cc9OC[C@H]8c8cccc(F)c8F)cc7F)CC6)CC5)C4)ccc3C2=O)C(=O)N1` (stereo partly drawn) [Example 39, 3-(5-(7-((1-(4-((3R,4S)-3-(2,3-difluorophenyl)-7-hydroxychroman-4-yl)-2,6-difluorophenyl)piperidin-4-yl)methyl)-2,7-diazaspiro[3.5]nonane-2-yl)-1-oxoisoinodolin-2-yl)piperidin-2,6-one], the DC50 was > 100 nM. In addition, the Dmax (read-out: Dmax) was < 50%.
For `O=C1CCC(N2Cc3cc(N4CCC(N5CC6(CCN(c7ccc([C@@H]8c9ccc(O)cc9CC[C@@H]8c8ccccc8F)cc7F)CC6)C5)CC4)ccc3C2=O)C(=O)N1` (stereo partly drawn) [Example 67, 3-(5-(4-(7-(2-fluoro-4-((1,2-cis)-2-(2-fluorophenyl)-6-hydroxyl-1,2,3,4-tetrahydronaphthalen-1-yl)phenyl)-2,7-diazaspiro[3.5]nonane-2-yl)piperidin-1-yl)-1-oxoisoinodolin-2-yl)pyridine-2,6-dione], the half-maximal degradation concentration (DC50) was < 10 nM. In addition, the Dmax (read-out: Dmax) is > 75%.
Take `O=C1CCC(N2Cc3cc(N4CC5(CCN(CC6CCN(c7ccc([C@@H]8c9ccc(O)cc9OC[C@@H]8c8c(F)cccc8F)cc7)CC6)CC5)C4)ccc3C2=O)C(=O)N1` (stereo partly drawn) [Example 77, 3-(5-(7-((1-(4-((3S,4R)-3-(2,6-difluorophenyl)-7-hydroxychroman-4-yl)phenyl)piperidin-4-yl)methyl)-2,7-diazaspiro[3.5]nonane-2-yl)-1-oxoisoinodolin-2-yl)piperidin-2,6-dione]: the greatest degradation seen (Dmax) result is “B (B: 75-50%)”.
Consider `O=C1CCC(N2Cc3cc(N4CC5(CCN(CC6CN(c7ccc(C8c9ccc(O)cc9OC[C@@H]8c8ccccc8F)cc7)C6)CC5)C4)ccc3C2=O)C(=O)N1` (stereo partly drawn) [Example 5, 3-(5-(7-((1-(4-(cis-3-(2-fluorophenyl)-7-hydroxypyran-4-yl)phenyl)azetidin-3-yl)methyl)-2,7-diazaspiro[3.5]nonane-2-yl)-1-oxoisoinodolin-2-yl)piperidin-2,6-dione], for which the half-maximal degradation concentration (DC50) was > 100 nM. Moreover, for the setting “read-out: Dmax”, the Dmax is 50 to 75%.
Consider `O=C1CCC(N2Cc3cc(N4CCC(N5CC6(CCN(c7ccc([C@H]8c9ccc(O)cc9CC[C@H]8c8ccccc8F)cc7)CC6)C5)CC4)ccc3C2=O)C(=O)N1` (stereo partly drawn) [Example 21, 3-(5-(4-(7-(4-((1S,2R)-2-(2-fluorophenyl)-6-hydroxyl-1,2,3,4-tetrahydronaphthalen-1-yl)phenyl)-2,7-diazaspiro[3.5]nonane-2-yl)piperidin-1-yl)-1-oxoisoinodolin-2-yl)piperidin-2,6-dione], for which the DC50 is > 100 nM. In addition, where the note is “read-out: Dmax”, the Dmax is < 50%.
